Results published in patent US5763435A, “Sulfate conjugates of ursodeoxycholic acid, and their beneficial use in inflammatory disorders” (priority 1995, dated 1998).

Tests used:
[1] = system: Principal Bile Acids in Jejunum; assay: Bile acid composition of jejunum after oral administration (GC-MS); format: in vivo, Sprague-Dawley rats; settings: for UDCA mass in jejunum: 24 hours after final dose
Protocol: (§1) Male Sprague-Dawley rats (Harlan Sprague-Dawley, Inc., Indianapolis, Ind.), weighing 210-290 g, were maintained on a 12-hour light-dark cycle and fed standard laboratory chow ad libitum for 3 days. The animals were then transferred to metabolic cages in which they were housed individually and fed the same diet. UDCA, UDCA 3-sulfate, UDCA 7-sulfate, and UDCA 3,7-disulfate were administered by gavage at a dose of 250 mg/day for 4 consecutive days. Each group comprised 3-6 rats. Body weights of the animals were measured each day. On day 5, the animals were killed by exsanguination under ether anesthesia. Plasma was collected and frozen at -20° C. The liver was removed, rinsed in normal saline, and flash-frozen in liquid nitrogen. Urine and feces were collected every 24 hours and frozen at -20° C. All animals received humane care in compliance with the "Guide for the Care and Use of Laboratory Animals" prepared by the National Academy of Sciences (National Institutes of Health publication no. 86-23, revised in 1985).
Intestinal contents were weighed and dissected into small pieces. In each group, feces (100 mg) from all animals were pooled on day 4 of the study and then ground into a fine paste. All samples were sonicated and sequentially refluxed in 80% methanol for 2 hours and chloroform/methanol (1:1) for 1 hour. Samples were taken to dryness, and the dried extracts were resuspended in 80% methanol (20 mL). Fractions of the methanolic extract (1/40 of intestinal contents and 1/20 of feces samples) were removed and the internal standard nordeoxycholic acid (10 μg) was added. This extract was diluted with 0.01 mol/L acetic acid (20 mL) and passed first through a column of Lipidex 1000 (bed size, 4×1 cm; Packard Instrument Co., Groningen, The Netherlands) and then through a Bond-Elut C18, cartridge (Analytichem, Harbor City, Calif.). Bile acids were recovered by elution of the Lipidex 1000 column and the Bond-Elut cartridge with methanol (20 mL and 5 mL, respectively), and the combined extracts were taken to dryness. Unconjugated bile acids were isolated and separated from neutral sterol and conjugated bile acids by lipophilic anion exchange chromatography on diethylaminohydroxypropyl Sephadex LH-20 (Lipidex-DEAP; Package Instrument Co.). Recovery of unconjugated bile acids was achieved by elution with 0.1 mol/L acetic acid in 72% ethanol (7 mL) followed by evaporation of the solvents. Total conjugated bile acids were recovered with 9 mL of 0.3 mol/L acetic acid in 72% ethanol, pH 9.6. Salts were removed by passage through a Bond-Elut C18 cartridge after addition of nordeoxycholic acid (10 μg), and conjugated bile acids were recovered by elution with 5 mL of methanol. Solvolysis was performed in a mixture of methanol (1 mL), distilled tetrahydrofuran (9 mL), and 1 mol/L trifluoracetic acid in dioxane (0.1 mL) and heated to 45° C for 2 hours. After solvolysis, unconjugated bile acids were isolated by chromatography on Lipidex-DEAP. Methyl ester derivatives were prepared by dissolving the sample in methanol (0.3 mL) and reacting with 2.7 mL of freshly distilled ethereal diazomethane. After evaporation of the reagents, the methyl ester derivatives were converted to trimethylsilyl ethers by the addition of […] of Tri-Sil reagent (Pierce Chemicals, Rockford, Ill.). A column of Lipidex 5000 (Packard Instrument Co.) was used to remove derivatizing reagents and to purify the sample.
Samples of liver (100 mg) were ground to a fine paste, and bile acids were extracted by reflux and passage through a column of Lipidex 1000 as described above for intestinal contents and feces. Group separation of bile acids, according to their mode of conjugation was achieved by lipophilic anion-exchange chromatography. […]

[2] = system: Principal Bile Acids in Liver; assay: Bile acid composition of liver tissue after oral administration (GC-MS); format: in vivo, Sprague-Dawley rats
Protocol: as §1
Samples of liver (100 mg) were ground to a fine paste, and bile acids were extracted by reflux and passage through a column of Lipidex 1000 as described above for intestinal contents and feces. Group separation of bile acids, according to their mode of conjugation was achieved by lipophilic anion-exchange chromatography. Extracts from each animal were pooled, and bile acids and their conjugates were separated using Lipidex-DEAP and stepwise elution of the gel bed with the following buffers: 0.1 mol/L acetic acid in 72% ethanol (unconjugated bile acids); 0.3 mol/L acetic acid in 72% ethanol, pH 5.0 (glycine conjugates); 0.15 mol/L acetic acid in 72% ethanol, pH 6.5 (taurine conjugates); and 0.3 mol/L acetic acid in 72% ethanol, pH 9.6 (sulfate conjugates). After evaporation of the buffers, sulfated bile acids were solvolyzed, whereas amidated conjugates were hydrolyzed with 50 U of cholylglycine hydrolase (Sigma Chemical Co.) in 2.5 mL of 0.2 mol/L phosphate buffer, pH 5.6, at 37° C. overnight. The resulting unconjugated bile acids were isolated on Lipidex-DEAP, and the methyl ester-trimethylsilyl ether derivatives were prepared as described above.
GC-MS analysis was performed using a Finnigan 4635 mass spectrometer (Finnigan Inc., San Jose, Calif.) that housed an identical gas chromatography column operated under the same conditions. Electron ionization (70 eV) mass spectra were recorded over the mass range of 50-800 daltons by repetitive scanning of the eluting components. Identification of bile acids was made on the basis of the gas chromatography retention index relative to a homologous series of n-alkanes, referred to as the methylene unit value, and the mass spectrum compared with authentic standards. Quantification of bile acids was achieved using gas chromatography by comparing the peak height response of the individual bile acids with the peak height response obtained from the internal standard.
Data are expressed as mean±SEM or as mean values of all animals when extracts were pooled before analysis. Results from different groups were compared using paired and unpaired two-tailed Student's t-test. P values of <0.05 were considered statistically significant.

[3] = oral gavage 250 mg/day, 4 days, mean ± SEM

Q: `C[C@H](CCC(=O)O)[C@H]1CC[C@H]2[C@@H]3[C@@H](O)C[C@@H]4C[C@H](OS(=O)(=O)O)CC[C@]4(C)[C@H]3CC[C@]12C` [UDCA-3S, ursodeoxycholic acid 3-sulfate] was tested. Which “Δ^22 UDCA in jejunum (in words)” value ([1]; oral) did it give?
A: detected in large proportions and amounts

Q: What about the “UDCA mass in jejunum” value ([1]; oral gavage 250 mg/day, 4 days, mean ± SEM, listed as UDCA 3-SULFATE) of the same molecule?
A: 3.67 mg

Q: What about the “UDCA mass in jejunum” value ([1]; oral gavage 250 mg/day, 4 days, mean ± SEM, listed as UDCA 3-sulfate) of the same molecule?
A: 3.67 ± 0.45 mg

Q: What about the “Chenodeoxycholic acid mass in jejunum” value [1, 3] of the same molecule?
A: 0.43 mg

Q: What about the “Cholic acid mass in jejunum” value [1, 3] of the same molecule?
A: 8.49 mg

Q: What about the “Cholic acid percent of jejunal bile acids” value [1, 3] of the same molecule?
A: 37.7%

Q: What about the “Deoxycholic acid mass in jejunum” value [1, 3] of the same molecule?
A: 1.96 mg

Q: And the “Deoxycholic acid percent of jejunal bile acids” value [1, 3]?
A: 8.4%

Q: What about the “Lithocholic acid mass in jejunum” value [1, 3] of the same molecule?
A: 0.07 mg

Q: And the “Lithocholic acid percent of jejunal bile acids” value [1, 3]?
A: 0.3%

Q: What about the “Total bile acid mass in jejunum” value [1, 3] of the same molecule?
A: 22.57 mg

Q: What about the “UDCA percent of jejunal bile acids” value [1, 3] of the same molecule?
A: 16.4%

Q: What about the “Δ^22-UDCA mass in jejunum” value [1, 3] of the same molecule?
A: 2.04 mg

Q: And the “Δ^22-UDCA percent of jejunal bile acids” value [1, 3]?
A: 9.2%

Q: What about the “Δ^22-β-Muricholic acid mass in jejunum” value [1, 3] of the same molecule?
A: 2.09 mg

Q: What about the “Δ^22-ω-Muricholic acid mass in jejunum” value [1, 3] of the same molecule?
A: 0.24 mg

Q: And the “α-Muricholic acid mass in jejunum” value [1, 3]?
A: 0.18 mg

Q: And the “β-Muricholic acid mass in jejunum” value [1, 3]?
A: 3.02 mg

Q: What about the “ω-Muricholic acid mass in jejunum” value [1, 3] of the same molecule?
A: 0.37 mg

Q: What about the “Change in proportion of cholic acid in jejunum (in words)” value ([1]; oral, vs control) of the same molecule?
A: decrease (P=0.05) in the proportion of cholic acid but to a lesser extent than UDCA

Q: What about the “Conjugation pattern of UDCA in jejunum” value ([1]; oral, anion-exchange chromatography) of the same molecule?
A: substantial proportions of amidated UDCA

Q: And the “Chenodeoxycholic acid concentration in liver” value ([2]; oral gavage 250 mg/day, 4 days)?
A: 9.2 nmol/g

Q: And the “Chenodeoxycholic acid percent of hepatic bile acids” value ([2]; oral gavage 250 mg/day, 4 days)?
A: 2.5%

Q: What about the “Cholic acid concentration in liver” value ([2]; oral gavage 250 mg/day, 4 days) of the same molecule?
A: 86.6 nmol/g

Q: What about the “Cholic acid percent of hepatic bile acids” value ([2]; oral gavage 250 mg/day, 4 days) of the same molecule?
A: 23.9%

Q: What about the “Deoxycholic acid concentration in liver” value ([2]; oral gavage 250 mg/day, 4 days) of the same molecule?
A: 52.6 nmol/g

Q: And the “Deoxycholic acid percent of hepatic bile acids” value ([2]; oral gavage 250 mg/day, 4 days)?
A: 14.5%

Q: What about the “Lithocholic acid concentration in liver” value ([2]; oral gavage 250 mg/day, 4 days) of the same molecule?
A: 3.2 nmol/g

Q: And the “Lithocholic acid percent of hepatic bile acids” value ([2]; oral gavage 250 mg/day, 4 days)?
A: 0.9%

Q: And the “Total bile acid concentration in liver” value ([2]; oral gavage 250 mg/day, 4 days)?
A: 361.7 nmol/g

Q: What about the “UDCA percent of hepatic bile acids” value ([2]; oral gavage 250 mg/day, 4 days) of the same molecule?
A: 15.6%

Q: And the “Δ^22-UDCA concentration in liver” value ([2]; oral gavage 250 mg/day, 4 days)?
A: 31.3 nmol/g

Q: And the “Δ^22-UDCA percent of hepatic bile acids” value ([2]; oral gavage 250 mg/day, 4 days)?
A: 8.6%

Q: And the “Δ^22-β-Muricholic acid concentration in liver” value ([2]; oral gavage 250 mg/day, 4 days)?
A: 36.3 nmol/g

Q: What about the “Δ^22-β-Muricholic acid percent of hepatic bile acids” value ([2]; oral gavage 250 mg/day, 4 days) of the same molecule?
A: 10.0%

Q: What about the “Δ^22-ω-Muricholic acid concentration in liver” value ([2]; oral gavage 250 mg/day, 4 days) of the same molecule?
A: 6.3 nmol/g

Q: What about the “Δ^22-ω-Muricholic acid percent of hepatic bile acids” value ([2]; oral gavage 250 mg/day, 4 days) of the same molecule?
A: 1.7%

Q: What about the “α-Muricholic acid concentration in liver” value ([2]; oral gavage 250 mg/day, 4 days) of the same molecule?
A: 6.0 nmol/g

Q: And the “α-Muricholic acid percent of hepatic bile acids” value ([2]; oral gavage 250 mg/day, 4 days)?
A: 1.6%

Q: And the “β-Muricholic acid concentration in liver” value ([2]; oral gavage 250 mg/day, 4 days)?
A: 65.4 nmol/g

Q: And the “β-Muricholic acid percent of hepatic bile acids” value ([2]; oral gavage 250 mg/day, 4 days)?
A: 18.1%

Q: What about the “ω-Muricholic acid concentration in liver” value ([2]; oral gavage 250 mg/day, 4 days) of the same molecule?
A: 8.1 nmol/g

Q: What about the “ω-Muricholic acid percent of hepatic bile acids” value ([2]; oral gavage 250 mg/day, 4 days) of the same molecule?
A: 2.2%

Q: What about the “Hepatic UDCA concentration change (in words)” value ([2]; oral, vs control) of the same molecule?
A: increased concentrations and proportions of liver tissue UDCA

Q: What about the “Conjugation of UDCA in liver tissue” value ([2]; oral, listed as C-3 sulfate) of the same molecule?
A: biotransformed by conjugation, mainly with taurine

Q: What about the “Conjugation of UDCA in liver tissue” value ([2]; oral, listed as UDCA 3-sulfate) of the same molecule?
A: significant desulfation and amidation
